Molecular target: T1, TESK2 (Homo sapiens, UniProt Q96S53)
T1 construct: purchased Thermo Fisher Scientific (Life Technologies) SelectScreen
Assay: SelectScreen LanthaScreen
Assay type: binding
Settings: read-out: % displacement
In short: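 Percent values come from Thermo SelectScreen profiling of NU5455, combining activity and binding assays. CSF1R was run in Z'LYTE format at Km app ATP, and CAMK1 in Adapta format with ATP listed at 10.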

T1 sequence (Q96S53 whole entry): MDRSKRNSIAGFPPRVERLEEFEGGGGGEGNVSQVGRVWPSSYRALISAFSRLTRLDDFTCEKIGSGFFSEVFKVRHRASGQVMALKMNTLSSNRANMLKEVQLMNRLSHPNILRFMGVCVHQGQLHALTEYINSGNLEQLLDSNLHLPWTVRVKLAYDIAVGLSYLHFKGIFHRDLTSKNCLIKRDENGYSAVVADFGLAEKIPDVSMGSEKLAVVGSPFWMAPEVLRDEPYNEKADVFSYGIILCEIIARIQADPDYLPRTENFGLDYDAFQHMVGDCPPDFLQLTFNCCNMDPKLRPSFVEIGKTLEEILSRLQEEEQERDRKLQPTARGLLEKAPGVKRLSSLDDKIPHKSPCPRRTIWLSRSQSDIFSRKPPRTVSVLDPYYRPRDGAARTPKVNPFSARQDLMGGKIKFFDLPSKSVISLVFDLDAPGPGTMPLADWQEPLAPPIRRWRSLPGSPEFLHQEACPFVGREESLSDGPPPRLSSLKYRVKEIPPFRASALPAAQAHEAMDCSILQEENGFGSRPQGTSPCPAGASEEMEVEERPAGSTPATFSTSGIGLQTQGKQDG

CN(C(=O)CN1CCOCC1)c1ccc2sc3c(-c4cccc5c(=O)cc(N6CC7CCC(C6)O7)oc45)cccc3c2c1 [NU5455]
inhibition at 1 µM: 2.7%

Source: paper PMC6934184, “Selective DNA-PKcs inhibition extends the therapeutic index of localized radiotherapy and chemotherapy” (The Journal of Clinical Investigation, 2019)
